This note sets out measurements from PubChem BioAssay (NCI).

Experiment in all cases: NCI anticancer screen, dose series, 48 h
The test system of assay [1] is HOP-62 NSCLC.
Assay [2] deals with OVCAR-3 ovarian.
The subject of assay [3] is OVCAR-5 ovarian.
For assay [4], the system named is NCI-H522 lung.
For assay [5], the system named is SK-MEL-28 melanoma.
In assay [6] the test system is 786-0 renal.
In assay [7] the test system is MOLT-4 leukemia.
The subject of assay [8] is MDA-MB-435.
In assay [9] the test system is PC-3 prostate.
The test system of assay [10] is MDA-MB-231 breast.

Each structure is given as a SMILES string. “And” between values parts separate entries of the source, which are not always exact repeats. Equal values may be shown once.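 Tested at 5 concentrations; 48 h exposure; 96-well plates; endpoints linearly interpolated, else capped at highest concentration. Abbreviation: GI50, concentration required for 50% inhibition of growth. TGI marks complete inhibition of growth.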

`C[N+](C)(C)C1CC([N+](C)(C)C)C2c3ccccc3C21` (configuration not stated): the TGI in assay [1], in [2], in assay [3], in assay [4], in [5] and in assay [6] was more than 100 µM each time.

As to `Cc1[nH]c2ccccc2c1C1=NO/C(=N\O)C(c2c(C)[nH]c3ccccc23)C1` (configuration not stated), the TGI in assay [1] was 64.6 µM; in assay [2], 70.7 µM; in [3] it was more than 100 µM; in [7], 69.6 µM; in assay [5], more than 100 µM; in [6], more than 100 µM.

Regarding `CCOC(=O)c1c(-c2ccc(OC)c(O)c2)c(C#N)c(=S)n(C2OC(COC(C)=O)C(OC(C)=O)C(OC(C)=O)C2OC(C)=O)c1-c1ccccc1` (configuration not stated), the GI50 in assay [1] is 26.5 µM and > 100 µM; in assay [2] it was 20.9 µM and > 100 µM; in assay [8] it was 31.7 µM and 67.9 µM; in [9], 25 µM and > 100 µM; in [7], 38.3 µM and > 100 µM; in assay [5], 32.5 µM and > 100 µM. Besides, the GI50 in assay [6] is 35.1 µM and > 100 µM. Further, the TGI in [1] was 72.2 µM and > 100 µM; in assay [2], 45.2 µM and > 100 µM; in [3] it was more than 100 µM; in assay [8], 91.6 µM and > 100 µM; in [9], 66.5 µM and > 100 µM; in assay [7], more than 100 µM. The figures for the TGI in assay [4], in assay [5] and in assay [6] were 45.7 µM, more than 100 µM and more than 100 µM, respectively.

Take `CCn1c(SCC(=O)Nc2cc(C(F)(F)F)ccc2Cl)nc2ccccc2c1=O`: the GI50 in [1] was 14.6 µM; in assay [10] it was 18.9 µM; in assay [2], 43.2 µM; in assay [3], 61.9 µM; in assay [8], more than 100 µM; in [9] it was 14 µM. Moreover, the GI50 is more than 100 µM in assay [7], 53.9 µM in [5] and 48.6 µM in [6]. The TGI in [1] is 33.5 µM; in assay [10], more than 100 µM; in [2], more than 100 µM; in assay [3], more than 100 µM; in assay [8], more than 100 µM; in assay [9], more than 100 µM. Besides, the TGI in assay [7], in assay [5] and in [6] was more than 100 µM throughout.

Regarding `CN=C1CN=C(OP(=O)(N2CCOCC2)N2CCOCC2)c2cc(Cl)ccc2N1`, the TGI in assay [2], in [3], in assay [7], in [4], in assay [5] and in assay [6] was more than 100 µM throughout.

With `Brc1ccc(C=NC23CC4CC(CC(C4)C2)C3)cc1`, the TGI in assay [1], in [2], in [3], in assay [7], in [4] and in assay [5] was more than 100 µM each time. Also, the TGI in [6] is more than 100 µM.

Consider `CC(=O)OC1=C2CC[C@@H]3C(CC[C@@]4(C)C3CC[C@@H]4OC(C)=O)[C@@]2(C)CC(C#N)C1=O` (some centres not stated), for which the TGI in assay [1] was more than 100 µM; in assay [2], 53.3 µM; in assay [3], more than 100 µM; in [7], 51.3 µM; in [5], more than 100 µM; in assay [6] it was more than 100 µM.

In the case of `CCC[CH2][Sn]1([CH2]CCC)[O]CC[S]1`, the GI50 is 2.09 µM in assay [1]; 0.848 µM in assay [2]; 1.39 µM in assay [3]; 0.37 µM in assay [7]; 41 nM in assay [4]; 0.238 µM in assay [5]. For the same molecule, the GI50 in [6] is 0.516 µM. Further, the TGI stood at 3.59 µM in assay [1]; 2.13 µM in assay [2]; 2.72 µM in assay [3]; 2.4 µM in [7]; 0.187 µM in [4]; 0.898 µM in assay [5]. The same molecule registered a TGI in [6] of 1.7 µM.

Regarding `C/C(=C\C(C[C@](C)(O)C(O)CCC#C[Si](C)(C)C)S(=O)(=O)c1ccccc1)CC/C=C/CO[Si](C)(C)C(C)(C)C` (some centres not stated), the TGI in [1] stood at 39.2 µM; in [2], 29.6 µM; in [3], 26.9 µM; in [7], 23.1 µM; in [4], 33 µM; in assay [6] it was 31.5 µM.

On to `[Co].[O-]c1cccnc1C=Nc1ccccc1.[OH3+]`, for which the GI50 in [2] is more than 100 µM; in [3], more than 100 µM; in [7], 78.3 µM; in assay [4] it was 39300 nM; in assay [5], 82.6 µM; in assay [6], more than 100 µM. Also, the TGI in [2], in [3], in assay [7], in [4], in [5] and in assay [6] was more than 100 µM each time.

For the molecule `COc1ccc(-c2cc(-c3ccc(OC)cc3)nc(NCCCNc3ccnc4cc(Cl)ccc34)n2)cc1`, the GI50 in assay [1] is 1.56 µM; in [10], 1.95 µM; in assay [2], 1.7 µM; in [3] it was 1.67 µM; in [8] it was 1.73 µM; in assay [7] it was 1.84 µM. Also, the GI50 in assay [4] was 1920 nM; in assay [5] it was 1.73 µM; in assay [6] it was 1.62 µM. Further, the TGI stood at 3.06 µM in [1]; 3.59 µM in [10]; 3.14 µM in [2]; 3.14 µM in assay [3]; 3.18 µM in [8]; 6.09 µM in [7]. The TGI turned out to be 3.81 µM in assay [4], 3.21 µM in [5] and 2.99 µM in assay [6].

As for `CC[O-].CC[O-].O=C([CH-]C(=O)c1ccccc1)CCCCCCC(=O)[CH-]C(=O)c1ccccc1.[Ti+4]`, the GI50 in [1], in assay [2], in assay [3], in assay [7], in assay [5] and in [6] was more than 100 µM in each case. The TGI in assay [1], in assay [2], in [3], in assay [7], in assay [5] and in assay [6] was more than 100 µM in each case.
